Legend:
[1] = target: T1, ERK2 (Homo sapiens, UniProt P28482); assay: In vitro kinase assay, ERK2; format: biochemical
T1 construct: purchased Millipore 14-550
Protocol: The CKIδ, CKIα, CDK7, and ERK2 kinase assays were performed on 384-well plates (10 µl volume). The reaction mixture was as follows: for CKIδ, 2 ng/µl CKIδ (Millipore, 14-520), 50 µM peptide substrate RKKKAEpSVASLTSQCSYSS corresponding to human PER2 Lys659-Ser674 [47], and CKI buffer (40 mM Tris, 10 mM MgCl2, 0.5 mM DTT, 0.1 mg/ml BSA, pH 7.5); for CKIα, 1 ng/µl CKIα (Invitrogen, PV3850), 50 µM CKI peptide substrate (Anaspec, 60547-1), and CKI buffer; for CDK7, 5 ng/µl CDK7 (Millipore, 14-476), 100 µM Cdk7/9 peptide substrate (Millipore, 12-526), and CKI buffer; for ERK2, 1.5 ng/µl ERK2 (Millipore, 14-550), 0.8 µg/µl MBP (Millipore, 13-104), and ERK buffer (50 mM Tris, 10 mM MgCl2, 0.5 mM DTT, 1 mM EGTA, pH 7.5). Five hundred nl of compound was added to the mixture (final 5% DMSO), and the reaction was started by adding ATP (final 5 µM). After incubation at 30°C for 3h, 10 µl of Kinase-Glo Luminescent Kinase Assay reagent (Promega) was added, and the luminescence was detected to determine remaining ATP amount. […] IC50 value was obtained by using Prism software (GraphPad Software).

[2] = target: p38α (Homo sapiens, UniProt Q16539); assay: In vitro kinase assay, p38α (unpublished data); format: biochemical
p38α, sequence (Q16539 whole entry): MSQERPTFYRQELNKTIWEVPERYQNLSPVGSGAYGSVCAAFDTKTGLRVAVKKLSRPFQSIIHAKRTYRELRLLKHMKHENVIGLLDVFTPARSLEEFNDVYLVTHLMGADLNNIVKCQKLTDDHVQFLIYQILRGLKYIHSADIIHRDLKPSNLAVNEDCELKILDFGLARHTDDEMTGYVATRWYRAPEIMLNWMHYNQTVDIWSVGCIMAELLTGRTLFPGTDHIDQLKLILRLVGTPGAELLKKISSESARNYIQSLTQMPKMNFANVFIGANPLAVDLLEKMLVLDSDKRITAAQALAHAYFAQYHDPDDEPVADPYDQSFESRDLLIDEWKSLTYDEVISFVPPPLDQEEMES

[3] = target: CKIα (Homo sapiens, UniProt P48729); assay: Cell-based PER1 degradation assay (PER1-LUC), CKIα
CKIα, sequence (P48729 whole entry, the tested form may be a part): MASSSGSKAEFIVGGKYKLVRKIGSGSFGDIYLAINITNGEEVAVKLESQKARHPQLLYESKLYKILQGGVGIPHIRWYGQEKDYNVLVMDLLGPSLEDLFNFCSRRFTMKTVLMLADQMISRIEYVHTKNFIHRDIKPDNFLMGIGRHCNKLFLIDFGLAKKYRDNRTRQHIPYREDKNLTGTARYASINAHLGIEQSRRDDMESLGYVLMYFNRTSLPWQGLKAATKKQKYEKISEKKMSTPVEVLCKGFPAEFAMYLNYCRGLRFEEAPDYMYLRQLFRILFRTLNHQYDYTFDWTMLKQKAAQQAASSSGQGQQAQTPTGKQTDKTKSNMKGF
Protocol: HEK293T cells (6.0×10^4 cells) were reverse transfected on 96-well white solid-bottom plates by Lipofectamine 2000 with 40 ng each of expression vectors for C-terminally luciferase-fused PER1 (in p3XFLAG-CMV-14) and N-terminally HA-tagged kinase (in p3XFLAG-CMV-14). For luciferase (in p3XFLAG-CMV-14), 2 ng of expression vector with 38 ng of empty vector was used because of its efficient expression. After 48 h, the medium was supplemented with luciferin (final 1 mM) and HEPES-NaOH (pH 7.2; final 10 mM). After 1 h, cycloheximide (final 20 µg/ml) was added to the medium, and the plate was covered with optically clear film. The luminescence was recorded every 10 min by using the Tecan luminometer. Half-life was obtained by using Prism software (GraphPad Software).

[4] = tested on: protein kinases (CKIδ, CKIα, ERK2, CDK7, p38α; ERK1); assay: Affinity chromatography with compound 3 resin and U2OS cell lysate; format: binding, human
Protocol: U2OS cells kept in confluence (2×10^8 cells) were collected with ice-cold PBS and homogenized by using Dounce homogenizer in 5 ml of lysis buffer (25 mM MOPS, 15 mM EGTA, 15 mM MgCl2, 1 mM DTT, 60 mM β-glycerophosphate, 15 mM p-nitrophenyl phosphate, 1 mM Na3VO4, 1 mM NaF, 1 mM phenyl phosphate, 10 µg/ml leupeptin, 10 µg/ml aprotinin, 10 µg/ml soybean trypsin inhibitor, 100 µM benzamidine, pH7.2). The homogenate was sonicated and centrifuged (16,000×g) at 4°C for 20 min. The resulting supernatant was split into two, and each portion was incubated with or without 100 µM longdaysin (final 0.1% DMSO) at 4°C for 10 min (Figure 2C). Then, 120 µl of compound 3 [50% slurry in bead buffer (50 mM Tris, 250 mM NaCl, 5 mM EDTA, 5 mM EGTA, 0.1% NP-40, 5 mM NaF, 10 µg/ml leupeptin, 10 µg/ml aprotinin, 10 µg/ml soybean trypsin inhibitor, 100 µM benzamidine, pH 7.4)] was added to the mixture and incubated at 4°C for 1 h with rotation. […]
All gel bands were subjected to LC-MS/MS analysis as described previously. Tandem MS data were analyzed using Sequest (ThermoFinnigan, San Jose, CA; Version 3.0). […]
Scaffold (version Scaffold_2_05_00, Proteome Software Inc., Portland, OR) was used to validate MS/MS based peptide and protein identifications. […] Crude differential quantitation of proteins identified in both pulldown experiments was performed by comparing the number of assigned peptides.

[5] = tested on: Bmal1-dLuc U2OS cells; assay: Cytotoxicity in the U2OS circadian assay; format: cell-based, human
Protocol: The compound screen was done with the high-throughput circadian assay system as described previously. In brief, Bmal1-dLuc U2OS cells were suspended in the culture medium (DMEM supplemented with 10% fetal bovine serum, 0.29 mg/ml L-glutamine, 100 units/ml penicillin, and 100 µg/ml streptomycin) and plated onto 384-well white solid-bottom plates at 20 µl (2,000 cells) per well. After 2 d, 50 µl of the explant medium (DMEM supplemented with 2% B27, 10 mM HEPES, 0.38 mg/ml sodium bicarbonate, 0.29 mg/ml L-glutamine, 100 units/ml penicillin, 100 µg/ml streptomycin, 0.1 mg/ml gentamicin, and 1 mM luciferin, pH 7.2) was dispensed to each well, followed by the application of 500 nl of compounds (dissolved in DMSO; final 0.7% DMSO). The plate was covered with an optically clear film and set to luminescence monitoring system equipped with a CCD imager (ViewLux, Perkin Elmer). The luminescence was recorded every 2 h for 3–4 days. In follow-up studies, the luminescence was recorded every 100 min by using a microplate reader (Infinite M200, Tecan). The period parameter was obtained from the luminescence rhythm by curve fitting program CellulaRhythm or MultiCycle (Actimetrics), both of which gave similar results.

[6] = tested on: CKIα- and CKIδ-accelerated degradation of PER1; assay: Flag-tagged PER1 degradation by Western blot in HEK293T cells; format: cell-based; details: 24 h

T1 sequence (P28482 whole entry, species assumed): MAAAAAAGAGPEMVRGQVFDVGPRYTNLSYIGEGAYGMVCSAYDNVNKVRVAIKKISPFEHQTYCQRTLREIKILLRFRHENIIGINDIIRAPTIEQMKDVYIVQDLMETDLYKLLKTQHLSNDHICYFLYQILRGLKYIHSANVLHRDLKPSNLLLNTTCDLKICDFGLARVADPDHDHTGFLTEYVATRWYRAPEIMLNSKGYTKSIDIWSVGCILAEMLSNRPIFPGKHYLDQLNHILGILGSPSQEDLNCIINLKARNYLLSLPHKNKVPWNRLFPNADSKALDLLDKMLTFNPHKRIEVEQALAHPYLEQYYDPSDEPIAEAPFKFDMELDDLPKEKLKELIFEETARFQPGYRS

CC(C)n1cnc2c(NCc3cccc(C(F)(F)F)c3)ncnc21 [Longdaysin, 9-isopropyl-N-(3-(trifluoromethyl)benzyl)-9H-purin-6-amine]
IC50 ([1]; ATP 5 µM, from Figure 2E): 52 µM
Inhibition of ERK2 in vitro ([1]; range of 3 to 24 µM): considerably inhibited ERK2 in vitro
Effect on p38α activity [2]: much less effect
EC50 ([3]; HEK293T cells, 24 h treatment, from Figure 4E): 9.2 µM
Effect on CKIα-dependent degradation of PER1 ([3]; HEK293T, 0 to 20 µM, 24 h): inhibited by longdaysin treatment in a dose-dependent manner
Binding of protein kinases to the affinity resin on competition ([4]; 100 µM free longdaysin as soluble competitor): decreased binding in the presence of free longdaysin
Signal reduction of listed binding proteins upon competition ([4]; 100 µM free longdaysin, tandem MS spectra): ≥ 3 fold
Concentration showing cytotoxicity [5]: 71 µM
Inhibition of CKIα and CKIδ effects on PER1 degradation ([6]; 10 µM): partially inhibited
Inhibition of CKIα and CKIδ effects on PER1 degradation ([6]; 20 µM): strongly inhibited

From publication PMC3001897, “High-Throughput Chemical Screen Identifies a Novel Potent Modulator of Cellular Circadian Rhythms and Reveals CKIα as a Clock Regulatory Kinase” (PLoS Biology, 2010)
